# Results published in PMC6155649 (Molecules : A Journal of Synthetic Chemistry and Natural …, 2017).
# Where two headings read alike, the source gives them in different places. Marks after values point to notes of the source that are not given here.
# Key:
# P. falciparum Dd2 [1] = experiment: tritiated hypoxanthine incorporation growth inhibition assay; assay type: cell-based; conditions: for IC50: mean value
# Description: (§1) The protocols are described in the experimental section. Two protocols to measure the growth inhibition were used: the tritiated hypoxanthine incorporation method and the SYBRgreen method. This was due to the fact that the radioactive assay was abandoned in the laboratory due to cost issues related to radioactive waste disposal. […] All data are mean values from one to four independent experiments, each consisting of eight drug concentrations in duplicate.
# The IC50 values were determined using standard in vitro proliferation assays. […] The amount of radioactivity in precipitable material served as an index of parasite proliferation.
# [2] = test system: human lung MRC-5 fibroblasts; experiment: cytotoxicity, Alamar Blue (resazurin) assay; conditions: human MRC-5 fibroblasts, 3 days incubation
# Description: All compounds were tested for cytotoxicity on human lung MRC-5 fibroblasts using the Alamar Blue assay (Table 1 and Table 2).
# MRC-5SV2 cells are cultured in Earls MEM +5% FCSi. […] After 3 days incubation, cell viability is assessed fluorimetrically after addition of resazurin and fluorescence is measured (λex 550 nm, λem 590 nm). The results are expressed as % reduction in cell growth/viability compared to untreated control wells and CC50 is determined.
# P. falciparum Dd2 [3] = experiment: SYBRgreen growth inhibition assay; assay type: cell-based; conditions: read-out: IC50 (nM) ± SD (n)
# Description: as §1
# Parasite replication was assessed by fluorescent SYBRgreen staining of parasitic DNA [60] as previously described. IC50 values were calculated using SigmaPlot.
# P. falciparum Dd2 [4] = test system: P. falciparum Dd2; parameters: method as in PMID 21682307; conditions: P. falciparum Dd2, tritiated hypoxanthine incorporation method, previously reported values; cited from earlier work
# [5] = test system: human lung MRC-5 fibroblasts; parameters: method as in PMID 21682307; conditions: human MRC-5 fibroblasts, previously reported values; cited from earlier work
# P. berghei strain ANKA = test system: P. berghei strain ANKA; parameters: method as in PMID 21682307; conditions: P. berghei strain ANKA-infected CD1 mice, day 4; cited from earlier work
# P. berghei (ANKA-strain) = experiment: in vivo antimalarial activity in P. berghei ANKA-infected Swiss mice; parameters: species or system Plasmodium berghei; conditions: for % Parasitaemia (dpi) 4 / % Suppression (dpi) 4: day 4 post infection; for % Parasitaemia (dpi) 7 / % Suppression (dpi) 7: day 7 post infection; for % Parasitaemia (dpi) 11 / % Suppression (dpi) 11: day 11 post infection
# Description: Swiss mice (female—BW ~ 25 g; Janvier France, Le Genest Saint Isle, France) were allocated randomly to five groups of four animals each. Drinking water and food were available ad libitum throughout the experiment.
# P. berghei (ANKA-strain) is maintained in the laboratory by weekly mechanical subpassage in Swiss mice. The infection inoculum was prepared by taking heparinized blood was collected from a clinically ill donor mouse (approximately 20% parasitaemia) and diluted in PBS to obtain an infection inoculum of 0.15 mL with about 4 × 10^8 infected erythrocytes. The infection-inoculum was given intraperitoneally. The untreated infected controls developed severe malaria with most animals showing severe clinical signs on day 4. […]. […]
# Fe^III-heme = conditions: read-out: KD of the 1:1 π-π complex with Fe^III-heme; pH 7.5; cited from earlier work
# [6] = absorption spectrophotometric titrations versus pH (pKa); conditions: for [LH+]pH5/[LH+]pH7.4: ratio of protonated species at pH 5 and 7.4, I = 0.1 M NaClO4, T = 25 °C; for pH of precipitation during the titration: H2O/DMSO, 91/1 v/v as printed, pKa could not be accurately evaluated
# Source text: The HClO4 and NaOH solutions were freshly prepared just before use and titrated with sodium tetraborate decahydrate (B4Na2O7·10H2O, puriss, p.a, Fluka) and potassium hydrogen phthalate (C8H5KO3, Fluka, puriss, p.a.), respectively, using methyl orange (RAL) and phenolphthalein (Prolabo, purum) as the indicators. The GLEE program was applied for the glass electrode calibration (standard electrode potential E0/mV and slope of the electrode/mV pH^−1) and to check carbonate levels of the NaOH solutions used (<5%). The cell was thermostated at 25.0 ± 0.2 °C by the flow of a Lauda E200 thermostat. A stream of argon, pre-saturated with water vapour, was passed over the surface of the solution.
# The spectrophotometric data were analyzed with the Specfit program which adjusts the absorptivities and the stability constants of the species formed at equilibrium. Specfit uses factor analysis to reduce the absorbance matrix and to extract the eigenvalues prior to the multiwavelength fit of the reduced data set according to the Marquardt algorithm.
# [7] = observation of precipitation in DMSO; assay type: physicochemical; conditions: table footnote *
# [8] = in 0.4 M KCl; cited from earlier work
# [9] = P. falciparum Dd2, tritiated hypoxanthine incorporation method
# [10] = P. falciparum Dd2, SYBRgreen method, 72 h
# [11] = Plasmodium falciparum, DD2, 72 h
# [12] = 10 mg/kg ip for 5 days, Swiss mice
# [13] = 10 mg/kg ip for 5 days, Swiss mice, day 14 post infection
# [14] = 10 mg/kg ip for 5 days, infected Swiss mice
# [15] = Plasmodium falciparum, P. falciparum Dd2, SYBRgreen method, 72 h
# [16] = 0.1 M NaClO4 in water/DMSO (91:9 v/v)
# [17] = Plasmodium falciparum, DD2, P. falciparum Dd2, tritiated hypoxanthine incorporation method
# [18] = 50 mg/kg ip for 5 days, Swiss mice
molecule,measurement,setting,value
"2-(4′-nitro-Butyl-biphenyl-4-ylmethyl)-3-methyl-[1,4]naphthoquinone [Compound 28]",IC50,P. falciparum Dd2 [1]; [9],474 nM
same,Tox/MRC-5,[2],>64.0 µM
"2-Methyl-3-(2-bromo-benzyl)-4a,8a-dihydro-[1,4]naphthoquinone [Compound 25a]",IC50,P. falciparum Dd2 [3]; [10],86.3 nM
same,Tox/MRC-5,[2],>64.0 µM
"2-Methyl-3-(3-bromo-benzyl)-4a,8a-dihydro-[1,4]naphthoquinone [Compound 25b]",IC50,P. falciparum Dd2 [3]; [10],128 nM
same,Tox/MRC-5,[2],20.8 µM
"2-Methyl-3-(4-bromo-benzyl)-4a,8a-dihydro-[1,4]naphthoquinone [Compound 25c]",IC50,P. falciparum Dd2 [3]; [10],82 ± 2 nM
same,IC50,P. falciparum Dd2 [4],46 ± 4 nM
same,Tox/MRC-5,[5],>32.0 µM
same,Tox/MRC-5 (µM),[5],>32.0 ^b µM
same,reduction of parasitemia,P. berghei strain ANKA,35.8%
"CCN(CC)CCCC(C)Nc1ccnc2cc(Cl)ccc12 (centres unmarked) [Chloroquine, chloroquine]",IC50,P. falciparum Dd2 [3]; [11],99 ± 19 nM
same,% Parasitaemia (dpi) 4,P. berghei (ANKA-strain); [12],5.2%
same,% Suppression (dpi) 4,P. berghei (ANKA-strain); [12],86.3%
same,% Parasitaemia (dpi) 7,P. berghei (ANKA-strain); [12],9.8%
same,% Suppression (dpi) 7,P. berghei (ANKA-strain); [12],76.8%
same,% Parasitaemia (dpi) 11,P. berghei (ANKA-strain); [12],32.1%
same,% Suppression (dpi) 11,P. berghei (ANKA-strain); [12],52.7%
same,% Parasitaemia (dpi) 14,P. berghei (ANKA-strain); [13],56.2%
same,% Suppression (dpi) 14,P. berghei (ANKA-strain); [13],9.2%
same,Health Status,P. berghei (ANKA-strain); [14],"From day 4 p.i. onwards: poor appearance, tremor, body weight loss, rough hair, one animal died before day 14 p.i."
same,survival until day 7,P. berghei (ANKA-strain); [14],100%
same,IC50,P. falciparum Dd2 [4],110 ± 20 nM
same,Tox/MRC-5,[5],51.5 µM
same,Kd,Fe^III-heme,2000 to 15000 nM
"CC1=C(Cc2ccc(N(C)C)cc2)C(=O)c2ccccc2C1=O [Compound 3, 2-(4-(Dimethylamino)benzyl)-3-methylnaphthalene-1,4-dione]",IC50,P. falciparum Dd2 [3]; [15],567 ± 217 nM
same,Tox/MRC-5,[2],>64.0 µM
same,pKa,[6]; [16],4.87 ± 0.03
same,[LH+]pH5/[LH+]pH7.4,[6]; Water/DMSO (0.91/0.09 v/v),144.7
"CC1=C(Cc2ccc(NC(=O)OC(C)(C)C)cc2)C(=O)c2ccccc2C1=O [Compound 6, tert-Butyl(4-((3-Methyl-1,4-dioxo-1,4-dihydronaphthalen-2-yl)methyl)phenyl) carbamate]",IC50,P. falciparum Dd2 [1]; [9],42.5 nM
same,IC50,P. falciparum Dd2 [1]; [17],42 nM
same,IC50,P. falciparum Dd2 [3]; [15],109 ± 46 nM
same,Tox/MRC-5,[2],>64.0 µM
same,% Parasitaemia (dpi) 4,P. berghei (ANKA-strain); [18],9.4%
same,% Suppression (dpi) 4,P. berghei (ANKA-strain); [18],75.5%
same,% Parasitaemia (dpi) 7,P. berghei (ANKA-strain); [18],7.7%
same,% Suppression (dpi) 7,P. berghei (ANKA-strain); [18],81.8%
same,% Parasitaemia (dpi) 11,P. berghei (ANKA-strain); [18],41.9%
same,% Suppression (dpi) 11,P. berghei (ANKA-strain); [18],38.1%
same,% Parasitaemia (dpi) 14,"P. berghei (ANKA-strain); 50 mg/kg ip for 5 days, Swiss mice, day 14 post infection",69.3%
same,Health Status,"P. berghei (ANKA-strain); 50 mg/kg ip for 5 days, infected Swiss mice","From day 4 p.i. onwards: poor appearance (intermittent), one animal died before day 14 p.i."
"CC1=C(Cc2ccc(N)cc2)C(=O)c2ccccc2C1=O [Compound 7, 2-(4-Aminobenzyl)-3-methylnaphthalene-1,4-dione]",IC50,P. falciparum Dd2 [3]; [15],303 ± 138 nM
same,Tox/MRC-5,[2],>64.0 µM
same,[LH+]pH5/[LH+]pH7.4,[6]; Water,162.5
same,pKa,[6]; water with 0.1 M NaClO4,4.74 ± 0.05
"CC(=O)Nc1ccc(CC2=C(C)C(=O)c3ccccc3C2=O)cc1 [Compound 9, N-(4-((3-Methyl-1,4-dioxo-1,4-dihydronaphthalen-2-yl)methyl)phenyl)acetamide]",IC50,P. falciparum Dd2 [3]; [11],411 ± 220 nM
"CCN(CC)c1ccc(CC2=C(C)C(=O)c3ccccc3C2=O)cc1 [Compound 11, 2-(4-(Diethylamino)benzyl)-3-methylnaphthalene-1,4-dione]",IC50,P. falciparum Dd2 [3]; [15],2060 ± 1070 nM
same,Tox/MRC-5,[2],29.3 µM
same,pKa,[6]; [16],5.07 ± 0.06
same,[LH+]pH5/[LH+]pH7.4,[6]; Water/DMSO (0.91/0.09 v/v),112.0
"CC(=O)Nc1cccc(CC2=C(C)C(=O)c3ccccc3C2=O)c1 [Compound 16, N-(3-((3-Methyl-1,4-dioxo-1,4-dihydronaphthalen-2-yl)methyl)phenyl)acetamide]",IC50,P. falciparum Dd2 [3]; [11],310 ± 134 nM
"CC1=C(Cc2cccc(N)c2)C(=O)c2ccccc2C1=O [Compound 17, 2-(3-Aminobenzyl)-3-methylnaphthalene-1,4-dione]",IC50,P. falciparum Dd2 [3]; [15],1200 ± 1650 nM
same,Tox/MRC-5,[2],>64.0 µM
same,[LH+]pH5/[LH+]pH7.4,[6]; Water,209.6
same,pKa,[6]; water with 0.1 M NaClO4,4.3 ± 0.02
same,behaviour in DMSO,[7],Precipitates in DMSO
"CC1=C(Cc2cccc(N(C)C)c2)C(=O)c2ccccc2C1=O [Compound 18, 2-(3-(Dimethylamino)benzyl)-3-methylnaphthalene-1,4-dione]",IC50,P. falciparum Dd2 [3]; [15],386 ± 151 nM
same,Tox/MRC-5,[2],>64.0 µM
same,pKa,[6]; [16],4.6 ± 0.04
same,[LH+]pH5/[LH+]pH7.4,[6]; Water/DMSO (0.91/0.09 v/v),179.9
"CCN(CC)c1cccc(CC2=C(C)C(=O)c3ccccc3C2=O)c1 [Compound 19, 2-(3-(Diethylamino)benzyl)-3-methylnaphthalene-1,4-dione]",IC50,P. falciparum Dd2 [3]; [15],236 ± 97 nM
same,Tox/MRC-5,[2],>64.0 µM
same,pKa,[6]; [16],5 to 5.5
same,pH of precipitation during the titration,[6],~ 5
"CC(=O)Nc1ccccc1CC1=C(C)C(=O)c2ccccc2C1=O [Compound 22, N-(2-((3-Methyl-1,4-dioxo-1,4-dihydronaphthalen-2-yl)methyl)phenyl)acetamide]",IC50,P. falciparum Dd2 [3]; [15],282 ± 86 nM
same,Tox/MRC-5,[2],4.4 µM
same,melting point,,218 to 220 °C
"CC1=C(Cc2ccc(-c3ccc(N(C)C)cc3)cc2)C(=O)c2ccccc2C1=O [Compound 26, 2-(4′-Dimethylamino-biphenyl-4-ylmethyl)-3-methyl-[1,4]naphthoquinone]",fold higher IC50 value than plasmodione,"P. falciparum Dd2 [1]; P. falciparum Dd2, hypoxanthine incorporation test",10 fold
same,IC50,P. falciparum Dd2 [1]; [9],223 nM
same,IC50,P. falciparum Dd2 [1]; [17],229 nM
same,Tox/MRC-5,[2],>64.0 µM
same,melting point,,170 to 171 °C
"CC1=C(Cc2ccc(-c3ccc(C(C)(C)C)cc3)cc2)C(=O)c2ccccc2C1=O [Compound 27, 2-(4′-tert-Butyl-biphenyl-4-ylmethyl)-3-methyl-[1,4]naphthoquinone]",IC50,P. falciparum Dd2 [1]; [17],485 nM
same,Tox/MRC-5,[2],>64.0 µM
same,melting point,,112 to 114 °C
OCCN(CCO)c1ccccc1 [N-phenyldiethanolamine],pKa,[8],4.13
para-N-ethyl-3-benzylmenadione [Compound 10],IC50,P. falciparum Dd2 [3]; [10],418 ± 166 nM
same,Tox/MRC-5,[2],>64.0 µM
same,pKa ± σ,[6],5–5.5
same,pH of precipitation during the titration,[6],~ 5
